How the values were obtained:
[1] = tested on: LNCaP cells; test: Pro- and/or anti-proliferative activity on LNCaP in medium depleted in steroids (WST-1); type: cell-based; conditions: FIG. 1
Method: 2. Antiproliferative Activity on LNCaP in a Medium Depleted in Steroids:
The pro- and/or anti-proliferative activity of the compounds of the present invention is determined on LNCaP in medium depleted in steroids.
The LNCaP (ATCC, 1740) line originates from a carcinoma of the prostate expressing the androgen receptor, it is hormone-dependent.
The maintenance of the LNCaP line is carried out under the usual conditions in RPMI, 10% of foetal calf serum, 2 mM of glutamine, 100 U/ml of penicillin, 0.1 mg/ml of streptomycin and 0.01M HEPES, 1 mM sodium pyruvate, 40% of D-glucose.
For the study under conditions without steroids, 24 hours before the seeding the culture medium of the cells is eliminated. […]
The LNCaP line is seeded at 20,000 cells/well in 90 μl of RPMI medium with 10% foetal calf serum depleted in steroids in 96-well plates coated with poly-D-lysine (Biocoat, Costar). • Treatment of the cells: 24 h after seeding, the cells are treated with 10 μl/well of compound diluted in the culture medium. […] The cells are incubated for 144 h at 37° C., 5% CO2. • Reading: After incubation for 6 days, 10 μL of cell proliferation reagent WST-1 (Roche ref 1644807) is added to each well. […]

[2] = molecular target: T1, androgen receptor (Homo sapiens, UniProt P10275, T878A); type: cell-based; conditions: LNCaP cells, 72 hours after treatment, western blot, FIGS. 2 to 10
T1 construct: primary antibody directed against the androgen receptor (AR441, sc-7305, Santa Cruz); host or cells: LNCaP
T1 sequence (P10275 whole entry T878A): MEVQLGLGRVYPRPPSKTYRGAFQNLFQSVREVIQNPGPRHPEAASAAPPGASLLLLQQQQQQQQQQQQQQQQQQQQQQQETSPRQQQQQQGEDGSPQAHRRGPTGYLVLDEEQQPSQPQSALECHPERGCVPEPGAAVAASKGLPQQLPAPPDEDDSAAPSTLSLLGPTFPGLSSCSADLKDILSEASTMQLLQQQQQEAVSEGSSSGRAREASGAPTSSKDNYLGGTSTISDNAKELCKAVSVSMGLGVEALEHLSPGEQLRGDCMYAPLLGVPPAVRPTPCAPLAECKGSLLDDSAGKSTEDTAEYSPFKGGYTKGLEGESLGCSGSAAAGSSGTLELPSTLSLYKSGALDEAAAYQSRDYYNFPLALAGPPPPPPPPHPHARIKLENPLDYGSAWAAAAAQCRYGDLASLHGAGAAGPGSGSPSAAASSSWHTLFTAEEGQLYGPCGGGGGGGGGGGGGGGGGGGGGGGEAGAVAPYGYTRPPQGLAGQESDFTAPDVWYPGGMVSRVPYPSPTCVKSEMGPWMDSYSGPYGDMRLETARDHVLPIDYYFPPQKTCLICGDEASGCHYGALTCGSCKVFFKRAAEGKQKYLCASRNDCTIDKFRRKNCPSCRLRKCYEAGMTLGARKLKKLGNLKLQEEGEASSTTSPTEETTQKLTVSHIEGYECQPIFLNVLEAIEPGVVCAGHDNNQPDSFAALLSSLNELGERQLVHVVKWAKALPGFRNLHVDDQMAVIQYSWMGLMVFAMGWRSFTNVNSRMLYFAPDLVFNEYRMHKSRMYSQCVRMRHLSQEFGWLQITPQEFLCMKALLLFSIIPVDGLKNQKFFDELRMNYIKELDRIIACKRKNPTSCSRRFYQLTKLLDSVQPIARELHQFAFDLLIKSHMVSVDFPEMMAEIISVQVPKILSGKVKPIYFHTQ
Method: The cells of the LNCaP line are seeded at a rate of 2.5 millions of cells per 10 cm Petri dish in RPMI, 10% of foetal calf serum, 2 mM of glutamine, 100 U/ml of penicillin, 0.1 mg/ml of streptomycin and 0.01M HEPES, 1 mM of sodium pyruvate, […]. 4 days later, the cells are treated with the compound to be tested. 72 hours after the treatment the cells are lyzed in lysis buffer (50 mM Tris pH 7.4, 150 mM NaCl, 1 mM EDTA, 20 mM NaF, 100 mM Na2VO3, 0.5% of NP40, 1% of Triton X-100, 1 mM EGTA, Pefabloc, protease inhibitor cocktail 11836170001 RocheDiagnostics, Phosphatase inhibitor cocktail set II Calbiochem). The cells are then scrapped and the lysate transferred into QIAshredder tubes (cat No. 79656 Qiagen) for centrifugation at 13,000 rpm for 15 min at 4° C. The supernatant is transferred into QIAshredder tubes for a second centrifugation at 13,000 rpm for 5 min in order to completely eliminate the DNA filaments. The protein concentration is then determined (Bio-Rad DC protein assay kit) and adjusted so as to load the same quantity of proteins per well (10 and 20 per well depending on the experiments). The loading buffer (sample loading buffer 3×ref 7722 Cell signaling technology) with added 1% beta-mercaptoethanol and 50 mM DTT, is added to the samples which are then heated for 10 min at 90° C. The samples are deposited under a volume of 20 μl on NuPAGE 4-12% Bis-Tris gels (cat No. NP0322BOX, Invitrogen). The migration takes place in MOPS buffer (Invitrogen) and is carried out for 1 hour at 180V. The proteins are transferred onto a nitrocellulose membrane (Hybond ECL RPN78D, GE Healthcare) under semi-dry conditions, in the presence of transfer buffer (NP0006-1, Invitrogen) over 45 min at 15V. The membrane is then blocked for 1 hour in blocking buffer (Non-fat dry milk, cat 170-6404, Biorad) at 5% in Tris Buffer saline (TBS) 0.1% Tween 20. Then it is incubated at 4° C. overnight in the presence of primary antibody directed against the androgen receptor (AR441, sc-7305, Santa Cruz) diluted to 1/2000th in blocking buffer as well as in the presence of primary antibody directed against GAPDH (Cat.MAB374, Millipore) diluted to 1/20,000th in blocking buffer (monitoring of protein load). The membrane is then washed 3 times in washing buffer (TBS, 0.1% Tween 20). The membrane is then incubated in the presence of secondary anti-immunoglobulin mouse antibody coupled with HRP (Goat anti-mouse IgG-HRP, sc 2031, Santa Cruz) diluted to 1/5000th in blocking buffer. The membrane is then washed 3 times in washing buffer.

[3] = tested on: LNCaP cells; test: Anti-proliferative activity on LNCaP in complete medium (WST-1); type: cell-based; conditions: Homo sapiens, 144 h, 144 h incubation, WST-1 reading, read-out: IC50 on the LNCaP cells in culture (concentration inhibiting the cell proliferation by 50%)
Method: 1. Anti-Proliferative Activity on LNCaP in Complete Medium
The anti-proliferative activity of the compounds of the present invention is determined on LNCaP in complete medium by applying the following experimental procedure:
The LNCaP cell type (ATCC, 1740) originates from a prostate carcinoma expressing the androgen receptor, this line is hormone-dependent.
Maintenance of the LNCaP line is carried out in complete culture medium: RPMI, 10% of foetal calf serum, 2 mM glutamine, 100 U/ml penicillin, 0.1 mg/ml of streptomycin and 0.01M HEPES, 1 mM sodium pyruvate, 40% of D-glucose. • Seeding the plates:
The LNCaP line is seeded at 20,000 cells/well in […] of complete medium in 96-well plates coated with poly-D-lysine (Biocoat, Costar). • Treatment of the cells: 24 h after the seeding, the cells are treated with 10 μl/well of compound diluted in the culture medium. The concentrations used are the following: 1 nM/10/30/100/300/1000/3000/10,000/100,000 nM. The cells are incubated for 144 h at 37° C., 5% CO2. • Reading: After incubation for 6 days, 10 μL of the “WST-1 cell proliferation” reagent (Roche ref 1644807) is added to each well. After incubation for 2 hours at 37° C., 5% CO2, the absorbance at 450 nm is measured by spectrophotometry (Envision, Perkin Elmer). • Results: The experiments are carried out in duplicate and the best compounds are tested twice. A concentration value inhibiting the cell proliferation by 50% (IC50) is calculated.

[4] = tested on: LNCaP cells; conditions: medium depleted in steroids; stated 'as described previously' (Veldscholte 1992); cited from earlier work

Structure (SMILES)	effect on protein expression of the androgen receptor [2]	IC50 [3]	further results
CC1(C)C(=O)N(c2ccc([N+](=O)[O-])c(C(F)(F)F)c2)C(=O)N1CCCCCN1C(=O)N(c2ccc([N+](=O)[O-])c(C(F)(F)F)c2)C(=O)C1(C)C [Example 2, 1,1′-pentane-1,5-diylbis{5,5-dimethyl-3-[4-nitro-3-(trifluoromethyl)phenyl]imidazolidine-2,4-dione}]	reduce protein expression of the androgen receptor	–	inhibitory activity on cell proliferation of LNCaP cultured in medium depleted in steroids [1]: visible inhibitory activity at low concentrations
CC1(C)C(=O)N(c2ccc([N+](=O)[O-])c(C(F)(F)F)c2)C(=O)N1CCCCCCCN1C(=O)N(c2ccc([N+](=O)[O-])c(C(F)(F)F)c2)C(=O)C1(C)C [Example 4, 1,1′-heptane-1,7-diylbis{5,5-dimethyl-3-[4-nitro-3-(trifluoromethyl)phenyl]imidazolidine-2,4-dione}]	–	< 1500 nM	–
CC1(C)C(=O)N(c2ccc([N+](=O)[O-])c(C(F)(F)F)c2)C(=O)N1CCOCCN1C(=O)N(c2ccc([N+](=O)[O-])c(C(F)(F)F)c2)C(=O)C1(C)C [Example 7, 1,1′-(oxydiethane-2,1-diyl)bis{5,5-dimethyl-3-[4-nitro-3-(trifluoromethyl)-phenyl]imidazolidine-2,4-dione}]	reduce protein expression of the androgen receptor	–	–
Cc1cc(N2C(=O)N(CCCCCN3C(=O)N(c4ccc([N+](=O)[O-])c(C)c4)C(=O)C3(C)C)C(C)(C)C2=O)ccc1[N+](=O)[O-] [Example 10, 1,1′-pentane-1,5-diylbis[5,5-dimethyl-3-(3-methyl-4-nitrophenyl)imidazolidine-2,4-dione]]	reduce protein expression of the androgen receptor	< 1500 nM	–
COc1cc(N2C(=O)N(CCCCCN3C(=O)N(c4ccc([N+](=O)[O-])c(OC)c4)C(=O)C3(C)C)C(C)(C)C2=O)ccc1[N+](=O)[O-] [Example 13, 1,1′-pentane-1,5-diylbis[3-(3-methoxy-4-nitrophenyl)-5,5-dimethyl-imidazolidine-2,4-dione]]	–	< 1500 nM	–
COC(=O)Nc1ccc(N2C(=O)N(CCCCCN3C(=O)N(c4ccc(NC(=O)OC)c(C)c4)C(=O)C3(C)C)C(C)(C)C2=O)cc1C [Example 14, dimethyl{pentane-1,5-diylbis[(4,4-dimethyl-2,5-dioxoimidazolidine-3,1-diyl)(2-methyl-4,1-phenylene)]}biscarbamate]	–	< 1500 nM	–
Cc1cc(N2C(=O)N(CCCCCN3C(=O)N(c4ccc(C#N)c(C)c4)C(=O)C3(C)C)C(C)(C)C2=O)ccc1C#N [Example 15, 4,4′-[pentane-1,5-diylbis(4,4-dimethyl-2,5-dioxoimidazolidine-3,1-diyl)]bis(2-methylbenzonitrile)]	reduce protein expression of the androgen receptor	–	–
CC1(C)C(=O)N(c2ccc(C#N)c(Cl)c2)C(=O)N1CCCCCN1C(=O)N(c2ccc(C#N)c(Cl)c2)C(=O)C1(C)C [Example 16, 4,4′-[pentane-1,5-diylbis(4,4-dimethyl-2,5-dioxoimidazolidine-3,1-diyl)]bis(2-chlorobenzonitrile)]	reduce protein expression of the androgen receptor	< 1500 nM	–
CC1(C)C(=O)N(c2ccc([N+](=O)[O-])c(C(F)(F)F)c2)C(=O)N1C/C=C\CN1C(=O)N(c2ccc([N+](=O)[O-])c(C(F)(F)F)c2)C(=O)C1(C)C [Example 19, 1,1′-(2Z)-but-2-ene-1,4-diylbis{5,5-dimethyl-3-[4-nitro-3-(trifluoromethyl)phenyl]imidazolidine-2,4-dione}]	reduce protein expression of the androgen receptor	–	inhibitory activity on cell proliferation of LNCaP cultured in medium depleted in steroids [1]: visible inhibitory activity at low concentrations
CC1(C)C(=O)N(c2ccc(C#N)c(C(F)(F)F)c2)C(=O)N1C/C=C\CN1C(=O)N(c2ccc(C#N)c(C(F)(F)F)c2)C(=O)C1(C)C [Example 21, 4,4′-[(2Z)-but-2-ene-1,4-diylbis(4,4-dimethyl-2,5-dioxoimidazolidine-3,1-diyl)]bis[2-(trifluoromethyl)benzonitrile]]	reduce protein expression of the androgen receptor	–	–
CC1(C)C(=O)N(c2ccc(C#N)c(C(F)(F)F)c2)C(=O)N1C[C@@H]1O[C@@H]1CN1C(=O)N(c2ccc(C#N)c(C(F)(F)F)c2)C(=O)C1(C)C [Example 22, 4,4′-{(2R,3S)-oxirane-2,3-diylbis[methanediyl(4,4-dimethyl-2,5-dioxoimidazolidine-3,1-diyl)]}bis[2-(trifluoromethyl)benzonitrile]]	reduce protein expression of the androgen receptor	–	–
CC1(C)NC(=O)N(c2ccc([N+](=O)[O-])c(C(F)(F)F)c2)C1=O [nilutamide]	–	–	agonist / inhibitory activity of nilutamide on LNCaP proliferation [4]: agonist activity at low concentrations, then an inhibitory activity at high concentrations

Reference: patent publication US8624037B2, “Imidazolidine-2,4-dione derivatives and use thereof as a medicament” (Ipsen Pharma S.A.S., priority 2009, dated 2014)
